Key:
[1] = [M+H]+; instrument: TW
[2] = instrument: TW, calibrated with phosphatidylcholines (ESI+) and phosphatidylethanolamines (ESI-), doubly charged cardiolipins calibrated with poly-DL-…

SMILES | collision cross section (N2) [1] | other results
O=C(CCCN1CCN(c2ccccn2)CC1)c1ccc(F)cc1 [Azaperone] | 180.3 Å² | 
CC(NC(=O)C(NC(=O)O)C(C)C)c1nc2ccc(F)cc2s1 (centres undefined) [Benthiavalicarb] | 173.38 Å² | 
O=C(Nc1ccccc1-c1ccc(Cl)cc1)c1cccnc1Cl [Boscalid] | 171.67 Å² | 
CC(C)(C)NCC(O)c1cc(Br)c(N)c(Br)c1 (centres undefined) [Brombuterol] | 167 Å² | 
Nc1c(Cl)cc(C(O)CNC2CCC(O)CC2)cc1Cl (centres undefined) [Clencyclohexerol] | 164.7 Å² | 
C[C@H]1C[C@H]2[C@@H]3CCC4=CC(=O)C=C[C@]4(C)[C@@]3(F)[C@@H](O)C[C@]2(C)[C@@]1(O)C(=O)CCl [Clobetasol] | 201.29 Å² | 
C[C@]12CC[C@H]3[C@@H](CCC4=C(Cl)C(=O)CC[C@@]43C)[C@@H]1CC[C@@H]2O [Clostebol] | 173.6 Å² | 
COP(=O)(OC)OC=C(Cl)Cl [Dichlorvos] | 133.07 Å² | 
O=C(O)Cc1ccccc1Nc1c(Cl)cccc1Cl [Diclofenac] | 157.2 Å² | 
Fc1ccc(cc1)N\3c2cc(c(F)cc2C(=O)C(/C(=O)O)=C/3)N4CCN(C)CC4 [Difloxacine] | 192.3 Å² | 
O=C(NC(=O)c1c(F)cccc1F)Nc1ccc(Cl)cc1 [Diflubenzuron] | 160.98 Å² | 
C[C@H]1c2cccc(O)c2C(=O)C2=C(O)[C@]3(O)C(=O)C(C(N)=O)=C(O)[C@@H](N(C)C)[C@@H]3[C@@H](O)[C@@H]21 [Doxycycline] | 197.4 Å² | 
O=C(O)\C3=C\N(c2cc(N1CCN(CC)CC1)c(F)cc2C3=O)C4CC4 [Enrofloxacine] | 194.8 Å² | 
CCOP(=O)(NC(C)C)Oc1ccc(S(C)(=O)=O)c(C)c1 (centres undefined) [Fenamiphos sulfone] | 179.48 Å² | 
CC(Cc1ccc(O)cc1)NCC(O)c1cc(O)cc(O)c1 (centres undefined) [Fenoterol] | 180.4 Å² | 
CCOC(=O)NCCOc1ccc(Oc2ccccc2)cc1 [Fenoxycarb] | 178.44 Å² | 
CC(Oc1ccc(Oc2ccc(C(F)(F)F)cn2)cc1)C(=O)O (centres undefined) [Fluazifop] | 173.47 Å² | 
Cc1c(Nc2ncccc2C(=O)O)cccc1C(F)(F)F [Flunixin] | 159.1 Å² | 
CC(C)Oc1cccc(NC(=O)c2ccccc2C(F)(F)F)c1 [Flutolanil] | 175.45 Å² | 
COC(=O)C(C)N(C(=O)c1ccco1)c1c(C)cccc1C (centres undefined) [Furalaxyl] | 167.15 Å² | 

SMILES | collision cross section (N2) [1] | other results
CCCN1C[C@H](C)[C@@H](O)[C@](C)(O)[C@@H](CC)OC(=O)[C@H](C)[C@@H](O[C@H]2C[C@@](C)(OC)[C@@H](O)[C@H](C)O2)[C@H](C)[C@@H](O[C@@H]2O[C@H](C)C[C@H](N(C)C)[C@H]2O)[C@](C)(O)C[C@H]1C [Gamithromycin] | 280.6 Å² | 
CC(Oc1ccc(Oc2ncc(C(F)(F)F)cc2Cl)cc1)C(=O)O (centres undefined) [Haloxyfop] | 179.86 Å² | 
COP(=O)(OC)OC1=C(Cl)C2C=CCC12 (centres undefined) [Heptenophos] | 144.04 Å² | 
CCCCC(O)(Cn1cncn1)c1ccc(Cl)cc1Cl (centres undefined) [Hexaconazole] | 171.26 Å² | 
CC(C(=O)O)c1ccc(N2Cc3ccccc3C2=O)cc1 (centres undefined) [Indoprofen] | 166.4 Å² | 
CC(C)c1ncc([N+](=O)[O-])n1C [Ipronidazole] | 126.1 Å² | 
CCCCCCCCCCCCCCC(=O)O[C@H](CO)COP(=O)(O)OCC(O)CO (some centres undefined) [LPG(15:0)] |  | collision cross section (N2) ([2]; [M-H]-): 208.96 Å²
CCCCC1CC1CCCCCCCC(=O)O[C@H](CO)COP(=O)(O)OCC(O)CO (some centres undefined) [LPG(15:1)] |  | collision cross section (N2) ([2]; [M-H]-): 206.44 Å²
CCCCCCC1CC1CCCCCCCC(=O)OC[C@@H](O)COP(=O)(O)OCC(O)CO (some centres undefined) [LPG(17:1)] |  | collision cross section (N2) ([2]; [M-H]-): 214.26 Å²
CCCCCCCC/C=C/CCCCCCCC(=O)OC[C@@H](O)COP(=O)(O)OCC(O)CO (some centres undefined) [LPG(18:1)] |  | collision cross section (N2) ([2]; [M-H]-): 217.72 Å²
CCCCCCCCC1CC1CCCCCCCC(=O)OC[C@@H](O)COP(=O)(O)OCC(O)CO (some centres undefined) [LPG(19:1)] |  | collision cross section (N2) ([2]; [M-H]-): 221.18 Å²
c1ccc([C@H]2CN3CCSC3=N2)cc1 [Levamisole] | 138.2 Å² | 
CON(C)C(=O)Nc1ccc(Cl)c(Cl)c1 [Linuron] | 149.63 Å² | 
CC#Cc1cc(C)nc(Nc2ccccc2)n1 [Mepanipyrim] | 152.07 Å² | 
CS(=O)(=O)c1ccc(C(=O)C2C(=O)CCCC2=O)c([N+](=O)[O-])c1 [Mesotrione] | 175.66 Å² | 
COCC(=O)N(c1c(C)cccc1C)C(C)C(=O)OC (centres undefined) [Metalaxyl] | 159.96 Å² | 
COc1ccc2cc([C@H](C)C(=O)O)ccc2c1 [Naproxen] | 147.1 Å² | 
O=C(O)c1cccnc1Nc1cccc(C(F)(F)F)c1 [Niflumic acid] | 156.8 Å² | 
CCN(Cc1ccc(Cl)nc1)/C(=C/[N+](=O)[O-])NC [Nitenpyram] | 160.32 Å² | 
CCCCCCCC/C=C\CCCCCCCC(=O)OC(COC(=O)CCCCCCCCCCCCCCCCC)COP(=O)(O)O (centres undefined) [PA(36:1)] |  | collision cross section (N2) ([2]; [M-H]-): 261.81 Å²

SMILES | collision cross section (N2) [1] | other results
CCCCCCCCCCCCCCCC(=O)OCC(COP(=O)(O)OCCN)OC(=O)CCCCCCCCCCCCC (centres undefined) [PE(30:0)] |  | collision cross section (N2) ([2]; [M+H]+): 265.85 Å²; collision cross section (N2) ([2]; [M-H]-): 251.05 Å²
CCCCCC/C=C\CCCCCCCC(=O)OCC(COP(=O)(O)OCCN)OC(=O)CCCCCCCCCCCCC (centres undefined) [PE(30:1)] |  | collision cross section (N2) ([2]; [M+H]+): 260.6 Å²; collision cross section (N2) ([2]; [M-H]-): 248.78 Å²
CCCCCCCCCCCCCCCC(=O)OCC(COP(=O)(O)OCCN)OC(=O)CCCCCCCCCCCCCC (centres undefined) [PE(31:0)] |  | collision cross section (N2) ([2]; [M+H]+): 269.25 Å²; collision cross section (N2) ([2]; [M-H]-): 253.95 Å²
CCCCCCCCCCCCCCCC(=O)OCC(COP(=O)(O)OCCN)OC(=O)CCCCCCCC1CC1CCCCCC (centres undefined) [PE(33:1)] |  | collision cross section (N2) ([2]; [M+H]+): 273.6 Å²; collision cross section (N2) ([2]; [M-H]-): 259.91 Å²
CCCCCC/C=C\CCCCCCCC(=O)OCC(COP(=O)(O)OCCN)OC(=O)CCCCCCC/C=C\CCCCCCCC (centres undefined) [PE(34:2)] |  | collision cross section (N2) ([2]; [M+H]+): 271.97 Å²; collision cross section (N2) ([2]; [M-H]-): 261.72 Å²
CCCCCCCC/C=C\CCCCCCCC(=O)OCC(COP(=O)(O)OCCN)OC(=O)CCCCCCC/C=C\CCCCCCCC (centres undefined) [PE(36:2)] |  | collision cross section (N2) ([2]; [M+H]+): 276.82 Å²; collision cross section (N2) ([2]; [M-H]-): 269.17 Å²
CCCCCCCCCCCCCCCC(=O)OCC(COP(=O)(O)OCC(O)CO)OC(=O)CCCCCCCCCCCCC (centres undefined) [PG(30:0)] |  | collision cross section (N2) ([2]; [M+Na]+): 272.75 Å²; collision cross section (N2) ([2]; [M-H]-): 258.02 Å²
CCCCCCCCCCCCCCCC(=O)OCC(COP(=O)(O)OCC(O)CO)OC(=O)CCCCCCCCCCCCCCC (centres undefined) [PG(32:0)] |  | collision cross section (N2) ([2]; [M+Na]+): 278.8 Å²; collision cross section (N2) ([2]; [M-H]-): 263.91 Å²
CCCCCC/C=C\CCCCCCCC(=O)OCC(COP(=O)(O)OCC(O)CO)OC(=O)CCCCCCCCCCCCCCC (centres undefined) [PG(32:1)] |  | collision cross section (N2) ([2]; [M+Na]+): 275.15 Å²; collision cross section (N2) ([2]; [M-H]-): 262.68 Å²
CCCCCC/C=C\CCCCCCCC(=O)OCC(COP(=O)(O)OCC(O)CO)OC(=O)CCCCCCC/C=C\CCCCCCCC (centres undefined) [PG(34:2)] |  | collision cross section (N2) ([2]; [M+Na]+): 278.38 Å²; collision cross section (N2) ([2]; [M-H]-): 267.97 Å²
CCCCCC/C=C\CCCCCCCC(=O)OCC(COP(=O)(O)OCC(O)CO)OC(=O)CCCCCCCC1CC1CCCCCCCC (centres undefined) [PG(35:2)] |  | collision cross section (N2) ([2]; [M+Na]+): 281.82 Å²; collision cross section (N2) ([2]; [M-H]-): 271.85 Å²
CO/C=C(/C(=O)OC)c1ccccc1COc1cccc(C(F)(F)F)n1 [Picoxystrobin] | 177.5 Å² | 
C[C@]12C=CC(=O)C=C1CC[C@@H]1[C@@H]2C(=O)C[C@@]2(C)[C@H]1CC[C@]2(O)C(=O)CO [Prednisone] | 180.1 Å² | 
CC1=NNC(=O)N(/N=C/c2cccnc2)C1 [Pymetrozine] | 150.71 Å² | 
CCCCCCCCSC(=O)Oc1cc(Cl)nnc1-c1ccccc1 [Pyridate] | 199.9 Å² | 
O=C(O)c1c(Cl)ccc2cc(Cl)cnc12 [Quinclorac] | 139.54 Å² | 
C=C1C[C@@]23CC[C@H]4[C@@](C)(CCC[C@@]4(C)C(=O)O)[C@@H]2CC[C@]1(O[C@@H]1O[C@H](CO)[C@@H](O)[C@H](O[C@@H]2O[C@H](CO)[C@@H](O)[C@H](O)[C@H]2O)[C@H]1O[C@@H]1O[C@H](CO)[C@@H](O)[C@H](O)[C@H]1O)C3 [Rebaudioside B] | 261.19 Å² | 
C=C1C[C@@]23CC[C@H]4[C@@](C)(CCC[C@@]4(C)C(=O)O[C@@H]4O[C@H](CO)[C@@H](O)[C@H](O)[C@H]4O)[C@@H]2CC[C@]1(O[C@@H]1O[C@H](CO)[C@@H](O)[C@H](O[C@@H]2O[C@H](CO)[C@@H](O)[C@H](O)[C@H]2O)[C@H]1O[C@@H]1O[C@@H](C)[C@H](O)[C@@H](O)[C@H]1O)C3 [Rebaudioside C] | 299.49 Å² | 
